Results on four compounds are retold here after patent US20260167627A1, “NEW SOLID FORMS OF (3R)-N-[2-CYANO-4-FLUORO-3-(3-METHYL-4-OXO-QUINAZOLIN-6-YL)OXY-PHENYL]-3-FLUORO-PYRROLIDINE-1-SULFONAMIDE” (Hoffmann-La Roche Inc., priority 2023, published 2026).

The conditions of data set [1]: cited from earlier work.
The nature of data set [2]: Moisture sorption/desorption (DVS), hygroscopicity. The class given is physicochemical. As to the method:
Moisture sorption/desorption data was collected on a DVS Advantage, a DVS Adventure, or a DVS Intrinsic (SMS Surface Measurements Systems) moisture balance system. The sorption/desorption isotherms were measured stepwise in a range from 0%-RH to 90%-RH at typically 25° C. A weight change of typically <0.001%/min was chosen as criterion to switch to the next level of relative humidity (with a maximum equilibration time of typically 24 hours, if the weight change criterion was not met). The data were corrected for the initial moisture content of the samples by taking the weight after drying of the samples at 0%-RH as zero point.
The hygroscopicity of a given substance was characterized (by close analogy with the European Pharmacopoeia) by the increase in mass when the relative humidity was raised from 0%-RH to 90%-RH:
European Pharmacopoeia-8″ Edition (2014), Chapter 5.11.

Data set [3] can be described thus: Thermogravimetric analysis (TGA). The data set is classed as physicochemical. As to conditions: heating rate 5 K/min under nitrogen, FIG. 3.
Procedure: Thermogravimetric analyses (TGA) were performed on a Mettler-Toledo™ thermogravimetric analyzer (TGA/DSC1 or TGA/DSC3+). System suitability tests were performed with Hydranal as reference substance and calibrations using Aluminum and Indium as reference substances. For the thermogravimetric analyses, approx. 5 to 15 mg (about 7.197 mg of Form B) of sample were placed in aluminum pans, accurately weighed and hermetically closed with perforation lids. Prior to measurement, the lids were automatically pierced resulting in approx. 0.5 mm pin holes. The samples were then heated under a flow of nitrogen of about 50 mL/min using a heating rate of 5 K/min to a maximum temperature of typically 350° C.
Data set [4] in a line: Thermodynamic stability of the solid form. The class given is physicochemical.

Regarding `CC(C)(C)c1nc(-c2cccc(NS(=O)(=O)c3c(F)cccc3F)c2F)c(-c2ccnc(N)n2)s1` [Dabrafenib], the brain permeability result in data set [1] is reported as “very poor”.

As for `COC(=O)N[C@@H](C)CNc1nccc(-c2cn(C(C)C)nc2-c2cc(Cl)cc(NS(C)(=O)=O)c2F)n1` [Encorafenib], the brain permeability entry in data set [1] is on record as “very poor”.

Turning to `Cn1cnc2ccc(Oc3c(F)ccc(NS(=O)(=O)N4CC[C@@H](F)C4)c3C#N)cc2c1=O` [Form B, (3R)—N-[2-cyano-4-fluoro-3-(3-methyl-4-oxo-quinazolin-6-yl)oxy-phenyl]-3-fluoro-pyrrolidine-1-sulfonamide], the “water uptake according to European Pharmacopeia” value in data set [2] (0%-RH to 90%-RH) is < 0.2%. Also, the hygroscopicity class entry in data set [2] (relative humidity raised from 0%-RH to 90%-RH, typically 25° C.) is “non-hygroscopic (weight increase Dm < 0.2%)”. Moreover, in data set [3], the “mass loss (TGA)” value turned out to be 0.087%. The “thermodynamic stability of solid form” value in data set [4] is on record as “thermodynamically stable form”.

With `CCCS(=O)(=O)Nc1ccc(F)c(C(=O)c2c[nH]c3ncc(-c4ccc(Cl)cc4)cc23)c1F` [Vemurafenib], the brain permeability result in data set [1] was “very poor”.
